Assay [1] has as its system SH-SY5Y cells. In words: Neuroprotection against okadaic acid in SH-SY5Y cells (MTT). It is filed as cell-based. Conditions: Homo sapiens, SH-SY5Y, 18 h; 1 µM compound; okadaic acid 20 nM; read-out: % Neuroprotection ± SEM at 1 µM (okadaic acid). The method, then:
Neuroprotection studies against tau hyperphosphorylation exerted by okadaic acid (OA) were evaluated using the SH-SY5Y cell line as follows. […] After 18 h, cell viability was addressed by the MTT reduction method. MTT (5 mg/mL, 10 μL/well) was added and incubated for 2 h. Then, the medium was removed and the purple formazan crystals formed by viable cells were dissolved using 100 μL of DMSO. A FluoStar Optima spectrophotometer (BMG Labtech, Ortenberg, Baden-Württemberg, Germany) was used to measure the absorbance at 570 nm.
Okadaic acid is a potent inhibitor of protein phosphatase 2A (PP2A), thereby inducing tau hyperphosphorylation. For this reason, it can be employed as a model of neurodegenerative-disease-connected tau hyperphosphorylation, a well-known feature of Alzheimer’s disease, but present also in other NDDs, collectively known as tauopathies and characterized by the pathological aggregation of hyperphosphorylated tau in neurofibrillary tangles. […] Tau hyperphosphorylation is connected to oxidative stress, which activates p38 and deactivates calcineurin, a phosphatase involved in tau dephosphorylation by increasing RCAN1, its natural repressor [34, 35]. Indeed, hyperphosphorylation and oxidative stress have been proposed to generate a vicious circle that is critical to the advance of neurodegenerative tauopathies.

The test system of assay [2] is Nrf2. In words: Nrf2 induction, luciferase assay in AREc32 cells. Conditions: Arec32, 24 h, read-out: CD (concentration that doubles luciferase activity). Type of assay: cell-based. The method, then: AREc32 cells (kindly shared by Dr. Professor Ronald C. Wolf, University of Dundee, Dundee, UK) were grown in Dulbecco’s modified Eagle medium (DMEM) with glutamax, supplemented with 10% fetal bovine serum (FBS), 1% of antibiotics penicillin–streptomycin, and geneticin (0.8 mg/mL, G418) (GIBCO, Madrid, Spain). Cells were harvested in a […] flask with 11 mL of the specified medium, incubated at 37 °C and 5% CO2, and they were transferred to a new flask every 4–6 days, when the confluence was around 80%. Cells were seeded in 96-well white plates (20,000 cells/well) using 100 μL/well. After 24 h, cells were treated with compounds at desired concentrations (1, 5, 10, 15 μM) for 24 h, including tert-butyl hydroquinone (TBHQ, 10 μM) as a positive control. Another 24 h later, luciferase activity was measured through a bioluminescence assay using a “Luciferase assay system” (Promega E1500, Madison, WI, USA), following the protocol given by the provider, and quantifying luminescence in an Orion II microplate luminometer (Berthold, Germany). Measurements were performed by duplicate, and the values were normalized to basal luminescence considered as 1. Nrf2 induction potency was expressed as CD values, i.e., the concentrations required to double the luciferase activity, and are calculated from dose–response curves generated by plotting fold induction of control conditions vs. compound concentration, and fitted by non-linear regression and data interpolated to value 2.
The ability of our compounds to induce Nrf2 was evaluated in the AREc32 cell line, an MCF7 stable clone that is transfected with eight copies of the luciferase reporter gene immediately after the ARE sequence. Therefore, Nrf2 activation and the subsequent transcription of the genes dependent on the ARE element also leads to expression of luciferase, which can be quantitated using a luminescence assay. AREc32 cells were incubated for 24 h with 0.3, 3, 10, 30, and 60 μM concentrations of compounds 3, and a luminescence measurement allowed CD values to be obtained. This parameter characterizes the Nrf2-inducing ability of each compound and represents the concentration required to double the luciferase activity compared to its basal expression.

In assay [3] the test system is SH-SY5Y cells. In words: Neuroprotection against rotenone/oligomycin A in SH-SY5Y cells (MTT). It is filed as cell-based. Conditions: Homo sapiens, 24 h, 1 µM compound, rotenone 30 µM + oligomycin A 10 µM, read-out: % Neuroprotection ± SEM at 1 µM (rotenone/oligomycin A). The method, then:
To evaluate the compounds for their neuroprotective effect in an oxidative stress model, we selected the rotenone (30 μM) and oligomycin A (10 μM) (R/O) cocktail, which disturbs the flow of electrons in the mitochondrial respiratory chain. Similarly, SH-SY5Y cells were preincubated with compounds 3 at 1 μM for 24 h. Then, they were co-incubated in the presence of R/O for a further 24 h, evaluating cell viability by the MTT reduction method.
Thus, the R/O combination constitutes a good model of oxidative stress and neurodegeneration with a mitochondrial origin, and has been broadly employed to evaluate potential hit compounds for the treatment of neurodegenerative diseases. Furthermore, treatment of laboratory animals with rotenone is known to induce many features associated to Parkinson’s disease, such as selective nigrostriatal dopaminergic degeneration and the appearance of α-synuclein cytoplasmic inclusions, which are associated with oxidative damage.

Assay [4] is described as follows: DPPH radical scavenging assay. Conditions: for DPPH Scavenging at 0.1 mM, %: 0.1 mM compound; for DPPH Scavenging at 1 mM, %: 1 mM compound. The method, then:
The direct antioxidant effects of compounds 3 were investigated by studying their radical-scavenging effect on the 2,2-diphenyl-1-picrylhydrazyl free radical (DPPH^•). Thus, a 100 μL volume of a methanol solution of each compound was added to 200 μL of 100 μM methanolic DPPH^•, and the solution was kept in the dark at 37 °C for 30 min in a 96-well microliter plate. After this incubation, the absorption at 490 nm of each solution was measured with a microplate reader in order to quantitate its decrease. A blank reading was also taken to calculate the amount of remaining DPPH^•. The radical-scavenging activity exerted by compounds 3 was determined by comparison with a 10 μL of MeOH-treated blank group. Ascorbic acid, a well-known antioxidant acting as a radical scavenger, was used as reference. All samples were analyzed in triplicate. Percent inhibition of the DPPH^• radical was calculated using the equation shown below, where AbsCtrl is the absorbance of the blank group and Abss is the absorbance of the samples containing compounds 3. For each compound showing a percentage of inhibition above 60%, the IC50 value was determined using a dose–response curve obtained from measurements corresponding to at least six concentrations. %Scavenger=AbsCtrl−AbsS/AbsCtrl×100
The radical scavenging activity of all compounds was first studied by the DPPH assay, which measures the ability of antioxidant compounds to donate a hydrogen atom to the violet 2,2-diphenyl-1-picrylhydrazyl radical and transform it into a nonradical species. Thus, it is generally considered to belong to the hydrogen atom transfer (HAT) category of methods for measurement of antioxidant activity.

The results in this text go back to PMC8230565, “Bisavenathramide Analogues as Nrf2 Inductors and Neuroprotectors in In Vitro Models of Oxidative Stress and Hyperphosphorylation” (Antioxidants, 2021).

A value given as a limit tells only on which side of the number the result lay.

In the case of `COC(=O)C1=C(C)N(CCc2ccccc2)C(=O)/C1=C\c1c[nH]c2ccccc12` [Compound 3o, Methyl (Z)-4-((1H-Indol-3-yl)methylene)-2-methyl-5-oxo-1-phenethyl-4,5-dihydro-1H-pyrrole-3-carboxylate], in assay [1], the % neuroprotection against okadaic acid at 1 µM amounted to 46.3 ± 13.6%. Also, the EC (2-fold luciferase activity) in assay [2] came to 36 ± 10.6 µM. Also, the % neuroprotection against rotenone/oligomycin A toxicity at 1 µM in assay [3] was above 90%. In assay [4], the “DPPH Scavenging at 0.1 mM, %” value was found to be 12.7 ± 1.9% and the “DPPH Scavenging at 1 mM, %” value amounted to 49.9 ± 3.4%.
For `COC(=O)C1=C(C)N(CCc2ccccc2)C(=O)/C1=C\c1ccc(OC)cc1OC` [Compound 3e, Methyl (Z)-4-(2,4-Dimethoxybenzylidene)-2-methyl-5-oxo-1-phenethyl-4,5-dihydro-1H-pyrrole-3-carboxylate] the same measures were 62.8 ± 8%, 10.4 ± 0.8 µM, 50.3 ± 16.3%, 6.33 ± 4.2% and 27.0 ± 2.6%.
As for `COC(=O)C1=C(C)N(CCc2ccc(OC)c(OC)c2)C(=O)/C1=C\c1ccc(OCc2ccc(Cl)cc2)c(OC)c1` [Compound 3m, Methyl (Z)-4-[4-((4-Chlorobenzyl)oxy)-3-methoxybenzylidene]-1-(3,4-dimethoxyphenethyl)-2-methyl-5-oxo-4,5-dihydro-1H-pyrrole-3-carboxylate], the % neuroprotection against okadaic acid at 1 µM in assay [1] stood at 40.7 ± 9.85%. The EC (2-fold luciferase activity) in assay [2] amounted to 21.4 ± 5.72 µM. In assay [3], the % neuroprotection against rotenone/oligomycin A toxicity at 1 µM worked out at 41.2 ± 18.9%. Also, in assay [4], the “DPPH Scavenging at 0.1 mM, %” value was 22.8 ± 0.2% and the “DPPH Scavenging at 1 mM, %” value was determined as 85.5 ± 2.7%. In assay [4] (n in brackets), this compound displayed a 50% inhibitory concentration (IC50) of 334 ± 22.9 µM.
With `COC(=O)C1=C(C)N(CCc2ccccc2)C(=O)/C1=C\c1ccc(OCc2ccccc2F)c(OC)c1` [Compound 3j, Methyl (Z)-4-[4-((2-Fluorobenzyl)oxy)-3-methoxybenzylidene]-2-methyl-5-oxo-1-phenethyl-4,5-dihydro-1H-pyrrole-3-carboxylate], the % neuroprotection against okadaic acid at 1 µM in assay [1] is 31.8 ± 15.2%. In assay [2], the EC (2-fold luciferase activity) was determined as 11.9 ± 2.83 µM. Also, in assay [3], the % neuroprotection against rotenone/oligomycin A toxicity at 1 µM came out at 51.2 ± 15.5%. In addition, in assay [4], the “DPPH Scavenging at 0.1 mM, %” value is given as 4.3 ± 2.1% and the “DPPH Scavenging at 1 mM, %” value was 31.3 ± 3.3%.
Turning to `COC(=O)C1=C(C)N(Cc2ccccc2)C(=O)/C1=C\c1ccccc1` [Compound 3a, Methyl (Z)-1-Benzyl-4-benzylidene-2-methyl-5-oxo-4,5-dihydro-1H-pyrrole-3-carboxylate], in assay [1], the % neuroprotection against okadaic acid at 1 µM was 68 ± 22%. Also, in assay [2], the EC (2-fold luciferase activity) turned out to be 30.2 ± 1.89 µM. Besides, in assay [3], the % neuroprotection against rotenone/oligomycin A toxicity at 1 µM amounted to 44.3 ± 13.6%. In assay [4], the “DPPH Scavenging at 0.1 mM, %” value was 9.7 ± 3.8% and the “DPPH Scavenging at 1 mM, %” value stood at 47.5 ± 4.9%.
